Like-named read-outs stand apart in the source and are kept apart here.
Tests used:
[1] = system: Nrf2 transcriptional activity (pARE-Luc reporter) in HepG2 cells; assay: In vitro Nrf2 transcriptional activity measurement by ARE-dependent reporter assay in HepG2 cell; assay type: cell-based, human
Summary of the method: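 HepG2 cells transfected with pGL4.37 (pARE-Luc), replated onto compound and incubated 4 h at 37° C; luciferase read by Bright-Glo luminescence. Response normalized to 100% set by a reference compound at 3.75 μM; EC50 from dose-response curve.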

[2] = system: Nqo1 (NAD(P)H quinone dehydrogenase 1) mRNA, Nrf2 downstream molecule; assay: In vivo Nrf2 transcriptional activity measurement (Nqo1 mRNA in organs by qPCR); conditions: Mus musculus, C57BL/6J mice, 7 to 8 hours
Experimental: Test Example 2: In Vivo Nrf2 Transcriptional Activity Measurement
A test compound (solvent: 10 vol % dimethyl sulfoxide/50 mM glycine/32 mM sodium hydroxide/physiological saline) was administered to C57BL/6J mice (7-8 weeks old), which were euthanized by whole blood collection under isoflurane anesthesia 7 to 8 hours later, followed by the collection of various organs. mRNA was purified from the collected organs, and the mRNA expression level of Mapk1 as an internal control and the mRNA expression level of Nqo1 (NAD(P)H quinone dehydrogenase 1) as a typical Nrf2 downstream molecule were each measured by qPCR. The Nqo1 mRNA expression level was quantified by comparative CT, and an expression level ratio to a non-administration group was calculated. The administration of the test compound elevated the Nqo1 mRNA expression level in the various organs, confirming that the test compound also has a Nrf2-activating effect in vivo.

[3] = Homo sapiens, HepG2 cells transfected with pARE-Luc, 4 hours at 37° C., luciferase activity of Example 1-54 or Example 17-23 at 3.75 μM defined as 100%
[4] = ip, Intraperitoneal, kidney, read-out: Nqo1 mRNA expression level ratio to non-administration group, Kidney
[5] = ip, Intraperitoneal, liver, read-out: Nqo1 mRNA expression level ratio to non-administration group, Liver
[6] = ip, Intraperitoneal, lung, read-out: Nqo1 mRNA expression level ratio to non-administration group, Lung
[7] = Oral, kidney, read-out: Nqo1 mRNA expression level ratio to non-administration group, Kidney
[8] = Oral, liver, read-out: Nqo1 mRNA expression level ratio to non-administration group, Liver
[9] = Oral, lung, read-out: Nqo1 mRNA expression level ratio to non-administration group, Lung

Row | Structure (SMILES) | EC50 [1, 3] | fold induction at 10 mg/kg [2, 4] | fold induction at 10 mg/kg [2, 5] | fold induction at 10 mg/kg [2, 6] | also measured
1 | CO[C@@H]1CN(c2cc(Cl)c(C(=O)N3COc4c(cccc4-c4cc(N5C6CCC5COC6)c(C(=O)O)cc4F)C3)c(Cl)c2)[C@@H]1C [Compound 1-4, 4-[3-[2,6-Dichloro-4-[(2R,3R)-3-methoxy-2-methylazetidin-1-yl]benzoyl]-2,4-dihydro-1,3-benzoxazin-8-yl]-5-fluoro-2-(3-oxa-8-azabicyclo[3.2.1]octan-8-yl)benzoic acid] | 1.6 nM | 4.4 | 6.5 | 13 | fold induction at 30 mg/kg [2, 7]: 5; fold induction at 30 mg/kg [2, 8]: 8.1; fold induction at 30 mg/kg [2, 9]: 20
2 | O=C(O)c1cc(F)c(-c2cccc3c2OCN(C(=O)c2c(Cl)cc(N4CC5(CCOCC5)C4)cc2Cl)C3)cc1N1C2CCC1COC2 [Compound 1-18, 4-[3-[2,6-Dichloro-4-(7-oxa-2-azaspiro[3.5]nonan-2-yl)benzoyl]-2,4-dihydro-1,3-benzoxazin-8-yl]-5-fluoro-2-(3-oxa-8-azabicyclo[3.2.1]octan-8-yl)benzoic acid] | 4.3 nM | 2.5 | 6 | 8.7 | 
3 | O=C(O)c1cc(F)c(-c2cccc3c2OCN(C(=O)c2c(Cl)cc(N4CC5(CC(OC(F)F)C5)C4)cc2Cl)C3)cc1N1C2CCC1COC2 [Compound 1-21, 4-[3-[2,6-Dichloro-4-[6-(difluoromethoxy)-2-azaspiro[3.3]heptan-2-yl]benzoyl]-2,4-dihydro-1,3-benzoxazin-8-yl]-5-fluoro-2-(3-oxa-8-azabicyclo[3.2.1]octan-8-yl)benzoic acid] | 2.9 nM | 3.7 | 4.7 | 10 | 
4 | C[C@@H]1CN(C)CCN1c1cc(Cl)c(C(=O)N2COc3c(cccc3-c3cc(N4C5CCC4COC5)c(C(=O)O)cc3F)C2)c(Cl)c1 [Compound 1-33, 4-[3-[2,6-Dichloro-4-[(2R)-2,4-dimethylpiperazin-1-yl]benzoyl]-2,4-dihydro-1,3-benzoxazin-8-yl]-5-fluoro-2-(3-oxa-8-azabicyclo[3.2.1]octan-8-yl)benzoic acid] |  | 3.7 | 5.5 | 13 | EC50 ([1]; HepG2 cells, pARE-Luc reporter, 4 hours, 100% = Example 1-54 or Example 17-23 at 3.75 μM (repeat print of Table 20-1)): 1.9 nM; fold induction at 30 mg/kg [2, 7]: 5.1; fold induction at 30 mg/kg [2, 8]: 5.2; fold induction at 30 mg/kg [2, 9]: 18
5 | COCCN1CCN(c2cc(Cl)c(C(=O)N3COc4c(cccc4-c4cc(N5CCOCC5)c(C(=O)O)cc4F)C3)c(Cl)c2)CC1 [Compound 1-54, 4-[3-[2,6-Dichloro-4-[4-(2-methoxyethyl)piperazin-1-yl]benzoyl]-2,4-dihydro-1,3-benzoxazin-8-yl]-5-fluoro-2-morpholin-4-ylbenzoic acid] | 1.5 nM | 4.6 | 6.7 | 18 | fold induction at 30 mg/kg [2, 7]: 4.9; fold induction at 30 mg/kg [2, 8]: 7.4; fold induction at 30 mg/kg [2, 9]: 20
6 | COC1CC2(C1)CN(c1cc(Cl)c(C(=O)N3COc4c(cccc4-c4ccc(C(=O)O)c(N5C6CCC5COC6)c4)C3)c(Cl)c1)C2 [Compound 1-83, 4-[3-[2,6-Dichloro-4-(6-methoxy-2-azaspiro[3.3]heptan-2-yl)benzoyl]-2,4-dihydro-1,3-benzoxazin-8-yl]-2-(3-oxa-8-azabicyclo[3.2.1]octan-8-yl)benzoic acid] | 2.4 nM |  |  |  | fold induction at 15 mg/kg [2, 4]: 4.7; fold induction at 15 mg/kg [2, 5]: 6.5; fold induction at 15 mg/kg [2, 6]: 21
7 | COC1CC2(C1)CN(c1ccc(C(=O)N3COc4c(cccc4-c4cc(N5C6CCC5COC6)c(C(=O)O)cc4F)C3)c(Cl)c1)C2 [Compound 1-88, 4-[3-[2-Chloro-4-(6-methoxy-2-azaspiro[3.3]heptan-2-yl)benzoyl]-2,4-dihydro-1,3-benzoxazin-8-yl]-5-fluoro-2-(3-oxa-8-azabicyclo[3.2.1]octan-8-yl)benzoic acid] | 2.1 nM |  |  |  | fold induction at 15 mg/kg [2, 4]: 3; fold induction at 15 mg/kg [2, 5]: 4.3; fold induction at 15 mg/kg [2, 6]: 6.1; fold induction at 15 mg/kg [2, 7]: 3.4; fold induction at 15 mg/kg [2, 8]: 5.4; fold induction at 15 mg/kg [2, 9]: 8.9
8 | CN1C[C@@H]2CC[C@H]1CN2c1cc(Cl)c(C(=O)N2COc3c(cccc3-c3cc(N4C5CCC4COC5)c(C(=O)O)cc3F)C2)c(Cl)c1 [Compound 20-3, 4-[3-[2,6-Dichloro-4-[(1S,4S)-5-methyl-2,5-diazabicyclo[2.2.2]octan-2-yl]benzoyl]-2,4-dihydro-1,3-benzoxazin-8-yl]-5-fluoro-2-(3-oxa-8-azabicyclo[3.2.1]octan-8-yl)benzoic acid] | 40 nM |  |  |  | 
9 | CN1C2CC1CN(c1cc(Cl)c(C(=O)N3COc4c(cccc4-c4cc(N5C6CCC5COC6)c(C(=O)O)cc4F)C3)c(Cl)c1)C2 [Compound 20-4, 4-[3-[2,6-Dichloro-4-(6-methyl-3,6-diazabicyclo[3.1.1]heptan-3-yl)benzoyl]-2,4-dihydro-1,3-benzoxazin-8-yl]-5-fluoro-2-(3-oxa-8-azabicyclo[3.2.1]octan-8-yl)benzoic acid] | 150 nM |  |  |  | 
10 | O=C(O)c1cc(F)c(-c2cccc3c2OCN(C(=O)c2c(Cl)cc(N4CC5CC(C4)N5C4COC4)cc2Cl)C3)cc1N1C2CCC1COC2 [Compound 20-5, 4-[3-[2,6-Dichloro-4-[6-(oxetan-3-yl)-3,6-diazabicyclo[3.1.1]heptan-3-yl]benzoyl]-2,4-dihydro-1,3-benzoxazin-8-yl]-5-fluoro-2-(3-oxa-8-azabicyclo[3.2.1]octan-8-yl)benzoic acid] | 75 nM |  |  |  | 
11 | O=C(O)c1cc(F)c(-c2cccc3c2OCN(C(=O)c2c(Cl)cc(N4C5CC4CN(C4COC4)C5)cc2Cl)C3)cc1N1C2CCC1COC2 [Compound 20-6, 4-[3-[2,6-Dichloro-4-[3-(oxetan-3-yl)-3,6-diazabicyclo[3.1.1]heptan-6-yl]benzoyl]-2,4-dihydro-1,3-benzoxazin-8-yl]-5-fluoro-2-(3-oxa-8-azabicyclo[3.2.1]octan-8-yl)benzoic acid] | 48 nM |  |  |  | 
12 | COCCN1C[C@@H]2C[C@H]1CN2c1cc(Cl)c(C(=O)N2COc3c(cccc3-c3cc(N4C5CCC4COC5)c(C(=O)O)cc3F)C2)c(Cl)c1 [Compound 20-7, 4-[3-[2,6-Dichloro-4-[(1S,4S)-5-(2-methoxyethyl)-2,5-diazabicyclo[2.2.1]heptan-2-yl]benzoyl]-2,4-dihydro-1,3-benzoxazin-8-yl]-5-fluoro-2-(3-oxa-8-azabicyclo[3.2.1]octan-8-yl)benzoic acid] | 14 nM |  |  |  | 
13 | O=C(O)c1cc(F)c(-c2cccc3c2OCN(C(=O)c2c(Cl)cc(N4CCNCC4)cc2Cl)C3)cc1N1C2CCC1COC2 [Compound 20-8, 4-[3-(2,6-Dichloro-4-piperazin-1-ylbenzoyl)-2,4-dihydro-1,3-benzoxazin-8-yl]-5-fluoro-2-(3-oxa-8-azabicyclo[3.2.1]octan-8-yl)benzoic acid] | 18 nM |  |  |  | 
14 | CN1CCN(c2cc(Cl)c(C(=O)N3COc4c(cccc4-c4cc(N5C6CCC5COC6)c(C(=O)O)cc4F)C3)c(Cl)c2)CC12CC2 [Compound 20-9, 4-[3-[2,6-Dichloro-4-(4-methyl-4,7-diazaspiro[2.5]octan-7-yl)benzoyl]-2,4-dihydro-1,3-benzoxazin-8-yl]-5-fluoro-2-(3-oxa-8-azabicyclo[3.2.1]octan-8-yl)benzoic acid] | 14 nM |  |  |  | 
15 | Cc1cnn(C2CN(c3cc(Cl)c(C(=O)N4COc5c(cccc5-c5cc(N6C7CCC6COC7)c(C(=O)O)cc5F)C4)c(Cl)c3)C2)c1 [Compound 20-13, 4-[3-[2,6-Dichloro-4-[3-(4-methylpyrazol-1-yl)azetidin-1-yl]benzoyl]-2,4-dihydro-1,3-benzoxazin-8-yl]-5-fluoro-2-(3-oxa-8-azabicyclo[3.2.1]octan-8-yl)benzoic acid] | 5.5 nM |  |  |  | 

Reference: patent US20250171457A1, “NITROGEN-CONTAINING HETEROCYCLIC COMPOUND HAVING NRF2 ACTIVATION EFFECT” (CHUGAI SEIYAKU KABUSHIKI KAISHA, priority 2022, published 2025)
